Source: patent US20230219931A1, “FUSED HETEROARYL HYDROXAMATES AS STING AGONISTS” (BiSiChem Co., Ltd., priority 2022, published 2023)
pEC50: −log10 of the molar value.

System: ISG reporter activity in THP1-Dual cell
Experiment: ISG reporter assay
Type: cell-based
Details: Homo sapiens, compounds incubated with cells for 24 hours, QUANTI-Blue, absorbance at 655 nm

With `CCn1nc(C)cc1C(=O)Nc1nc2cc(C(=O)NOC)cc(OC)c2n1C/C=C/Cn1c(NC(=O)c2cc(C)nn2CC)nc2cc(C(N)=O)cc(OCC#CCN3CCOCC3)c21` [Example 40, (E)-1-(4-(5-carbamoyl-2-(1-ethyl-3-methyl-1H-pyrazole-5-carboxamido)-7-((4-morpholinobut-2-yn-1-yl)oxy)-1H-benzo[d]imidazol-1-yl)but-2-en-1-yl)-2-(1-ethyl-3-methyl-1H-pyrazole-5-carboxamido)-N,7-dimethoxy-1H-benzo[d]imidazole-5-carboxamide] as the molecule, how does the pEC50 read?
The pEC50 was 6.30 to 7.30.

With `CCn1nc(C)cc1C(=O)Nc1nc2cc(C(N)=O)cc(OC)c2n1C/C=C/Cn1c(NC(=O)c2cc(C)nn2CC)nc2cc(C(N)=O)cc(OCC#CC3CN(C(=O)OC(C)(C)C)C3)c21` [Example 30, tert-butyl (E)-3-(3-((5-carbamoyl-1-(4-(5-carbamoyl-2-(1-ethyl-3-methyl-1H-pyrazole-5-carboxamido)-7-methoxy-1H-benzo[d]imidazol-1-yl)but-2-en-1-yl)-2-(1-ethyl-3-methyl-1H-pyrazole-5-carboxamido)-1H-benzo[d]imidazol-7-yl)oxy)prop-1-yn-1-yl)azetidine-1-carboxylate] as the molecule, how does the pEC50 read?
The pEC50 was over 7.30.

`CCn1nc(C)cc1C(=O)Nc1nc2cc(C(=O)NOC)cc(OC)c2n1C/C=C/Cn1c(NC(=O)c2cc(C)nn2CC)nc2cc(C(N)=O)cc(OCC#CCN3CCN(C(=O)OC(C)(C)C)CC3)c21` [Example 36, tert-butyl (E)-4-(4-((5-carbamoyl-2-(1-ethyl-3-methyl-1H-pyrazole-5-carboxamido)-1-(4-(2-(1-ethyl-3-methyl-1H-pyrazole-5-carboxamido)-7-methoxy-5-(methoxycarbamoyl)-1H-benzo[d]imidazol-1-yl)but-2-en-1-yl)-1H-benzo[d]imidazol-7-yl)oxy)but-2-yn-1-yl)piperazine-1-carboxylate] was tested. Which pEC50 did it give?
The pEC50 was 6.30 to 7.30.

With `CCn1nc(C)cc1C(=O)Nc1nc2cc(C(=O)NOC)cc(OC)c2n1C/C=C/Cn1c(NC(=O)c2cc(C)nn2CC)nc2cc(C(N)=O)cc(OCC#CCN3CCN(C(=O)C(C)C)CC3)c21` [Example 39, (E)-1-(4-(5-carbamoyl-2-(1-ethyl-3-methyl-1H-pyrazole-5-carboxamido)-7-((4-(4-isobutyrylpiperazin-1-yl)but-2-yn-1-yl)oxy)-1H-benzo[d]imidazol-1-yl)but-2-en-1-yl)-2-(1-ethyl-3-methyl-1H-pyrazole-5-carboxamido)-N,7-dimethoxy-1H-benzo[d]imidazole-5-carboxamide] as the molecule, how does the pEC50 read?
The pEC50 was under 6.30.

How did the pEC50 turn out when `CCn1nc(C)cc1C(=O)Nc1nc2cc(C(N)=O)cc(OC)c2n1C/C=C/Cn1c(NC(=O)c2cc(C)nn2CC)nc2cc(C(N)=O)cc(OCC#CC3CCN(S(=O)(=O)C4CCCC4)CC3)c21` [Example 22, (E)-1-(4-(5-carbamoyl-2-(1-ethyl-3-methyl-1H-pyrazole-5-carboxamido)-7-methoxy-1H-benzo[d]imidazol-1-yl)but-2-en-1-yl)-7-((3-(1-(cyclopentylsulfonyl)piperidin-4-yl)prop-2-yn-1-yl)oxy)-2-(1-ethyl-3-methyl-1H-pyrazole-5-carboxamido)-1H-benzo[d]imidazole-5-carboxamide] was run?
The pEC50 was over 7.30.

How did the pEC50 turn out when `CCn1nc(C)cc1C(=O)Nc1nc2cc(C(N)=O)cc(OC)c2n1C/C=C/Cn1c(NC(=O)c2cc(C)nn2CC)nc2cc(C(N)=O)cc(OCC#CC(C)(C)N3CCN(C(=O)OC(C)(C)C)CC3)c21` [Example 41, tert-butyl (E)-4-(5-((5-carbamoyl-1-(4-(5-carbamoyl-2-(1-ethyl-3-methyl-1H-pyrazole-5-carboxamido)-7-methoxy-1H-benzo[d]imidazol-1-yl)but-2-en-1-yl)-2-(1-ethyl-3-methyl-1H-pyrazole-5-carboxamido)-1H-benzo[d]imidazol-7-yl)oxy)-2-methylpent-3-yn-2-yl)piperazine-1-carboxylate] was run?
The pEC50 was over 7.30.

How did the pEC50 turn out when `CCn1nc(C)cc1C(=O)Nc1nc2cc(C(=O)NOC)cc(OC)c2n1C/C=C/Cn1c(NC(=O)c2cc(C)nn2CC)nc2cc(C(N)=O)cc(OCC#CC3CCN(C(=O)OC(C)(C)C)CC3)c21` [Example 2, tert-butyl (E)-4-(3-((5-carbamoyl-2-(1-ethyl-3-methyl-1H-pyrazole-5-carboxamido)-1-(4-(2-(1-ethyl-3-methyl-1H-pyrazole-5-carboxamido)-7-methoxy-5-(methoxycarbamoyl)-1H-benzo[d]imidazol-1-yl)but-2-en-1-yl)-1H-benzo[d]imidazol-7-yl)oxy)prop-1-yn-1-yl)piperidine-1-carboxylate] was run?
Its pEC50 is under 6.30.
